For data set [1], the system named is PC-3 human prostate cells. Kind of data set: In vitro cytotoxicity, resazurin dye. The conditions noted are these: Prostate cell, 72 hours. In kind it is cell-based. The procedure: (§1) In vitro cytotoxicity studies. […] Cell lines were plated in 96-well plates at an initial density of 3000 cells per well in 90 μL of appropriate media, and maintained at 37° C. under a 5% CO2 atmosphere. […] Drug-loaded micelles or micelles alone were formulated in MilliQ water (following dialysis of DMSO to form the micelles). It was not necessary to dilute the samples further before addition to wells. […] Following, the metabolic rate of cells was determined by using resazurin dye (Sigma-Aldrich).
(The colour change of resazurin is a common sign of viable cells or microbes.)

The subject of data set [2] is MCF-7 human breast cancer cells. Kind of data set: In vitro cytotoxicity, resazurin dye. The data set is classed as cell-based. The conditions noted are these: MCF7, 72 hours. The procedure: as §1
The next data set has as its system MCF-7. The conditions noted are these: reported by the National Cancer Institute; cited from earlier work.
For data set [3] the following is noted: dogs; cited from earlier work.
For data set [4] the following is noted: cited from earlier work.
Data set [5] can be described thus: 17-AAG loading in PEG-PLA micelles prepared by dialysis (HPLC). In kind it is physicochemical. The procedure:
Preparation and characterization of drug loaded PEG-PLA micelles. […] For example, 5 mg of 17-AAG and 45 mg of PEG-PLA (10:90 w/w) were dissolved in 10 mL DMAc. The resulting solution was dialyzed against H2O in 3500 MWCO tubing (SpectraPor). Resulting micelles were centrifuged at 5000 g's for 10 min to precipitate unincorporated drug. […] Micelle solutions were concentrated by rotary evaporation at reduced pressure at room temperature, followed by centrification (5000 g's for 10 minutes).
The loading experiments were investigated at 10% w/w to evaluate the suitability of PEG-PLA micelles for solubilizing 17-AAG.

Like-named read-outs stand apart in the source and are kept apart here. Bounds are passed on as bounds.

As usually defined, the IC50 is the point on the concentration scale where inhibition reaches its midpoint.

Turning to `C=CCNC1=C2C[C@@H](C)C[C@H](OC)[C@H](O)[C@@H](C)/C=C(\C)[C@H](OC(N)=O)[C@@H](OC)/C=C\C=C(/C)C(=O)NC(=CC1=O)C2=O` [17-AAG, 17-allylamino-17-demethoxygeldanamycin], the IC50 was 74 ± 14 nM in data set [1] (n = 6, read-out: PC-3 IC50); 74 ± 14 nM in data set [1] (read-out: IC50 in PC-3); 22 ± 14 nM in data set [2] (n = 6, read-out: MCF-7 IC50); 22 ± 14 nM in data set [2] (read-out: IC50 in MCF-7); 12.6 nM with MCF-7. Besides, the maximum tolerated dose in data set [3] is recorded as 100-200 mg/m^2/day. The “solubility of 17-AAG” value in data set [4] (according to the National Cancer Institute) was about 10 µg/mL. In addition, in data set [4], the aqueous solubility result is on record as “about 0.1 mg/mL”. For the same molecule, the water solubility result in data set [4] (neutral pH) is listed as “about 0.1 mg/mL”. Further, in data set [5] (0.3 mM PEG-PLA solution), the “mol 17-AAG:mol PEG-PLA” value is recorded as 0.73±0.09. In data set [5] (0.3 mM PEG-PLA solution, initial 17-AAG 0.45 mg/mL (11.4% w/w)), the 17-AAG solubilized is recorded as 0.083 ± 0.012 mg/mL. The 17-AAG loaded in data set [5] (0.3 mM PEG-PLA, weight 17-AAG versus total weight of carrier) turned out to be 0.024 ± 0.003 mg/mg. The molecule also came in with a 17-AAG loading efficiency in data set [5] (PEG-PLA (12:6 kDa) micelles) of 19±3 % w/w. The molecule further displayed a drug loading in data set [5] (PEG-PLA (12:12 kDa) micelles, with and without alpha-tocopherol) of under 0.5 mg/mL. Also, the “time after which drug precipitated out of solution” value in data set [5] (micelles incorporating 1:1 alpha-tocopherol to drug, even at 4° C.) fell in the range of 4 to 5 h. Also, in data set [5] (total drug solubilized versus initial drug concentration), the Efficiency amounted to 19 ± 3% loaded.
As to `CO[C@H]1/C=C\C=C(/C)C(=O)NC2=CC(=O)C(NCCN(C)C)=C(C[C@@H](C)C[C@H](OC)[C@H](O)[C@@H](C)/C=C(\C)[C@@H]1OC(N)=O)C2=O` [17-DMAG, 17-dimethylamino-ethylamino-17-demethoxygeldanamycin], the maximum tolerated dose in data set [3] is 8 mg/m^2/day.

Source of the values: patent US20100203114A1, “MICELLE ENCAPSULATION OF THERAPEUTIC AGENTS” (WARF - Wisconsin Alumni Research Foundation, priority 2007, published 2010).
